In patent US8030315B2, “DPP-IV inhibitor including beta-amino group, preparation method thereof and pharmaceutical composition containing the same for preventing and treating diabetes or obesity” (Dong-A Pharm. Co., Ltd., priority 2007, dated 2011):

Key:
[1] = tested on: C57BL/6 mice; test: Oral glucose tolerance test (OGTT); assay type: in vivo; details: dose of 1 mg/kg, compared to the control group
Method: Blood was collected from caudal veins of animals in the morning on the day of the experiment and a blood glucose level was measured with an Accu-Chek Active Blood Glucose Meter (Roche Diagnostics). […] Blood collection was made at designated time points—just prior to drug administration, just prior to glucose administration, and 5, 15, 30, 60 and 90 min after glucose administration.

[2] = In vivo kinetic experiments (half-life); details: SD, rat, blood, po, 10 mg/kg

Row | Structure (SMILES) | blood glucose-lowering effects [1] | half-life [2]
1 | CC(C)(C)OC[C@@H]1C(=O)NCCN1C(=O)C[C@H](N)Cc1cc(F)c(F)cc1F.O=C(O)C(O)C(O)C(=O)O [Example 12, (R)-4-[(R)-3-amino-4-(2,4,5-trifluorophenyl)butanoyl]-3-(t-butoxymethyl)piperazin-2-one tartrate] | 62% | 5.5 h
2 | N[C@@H](CC(=O)N1CCn2c(nnc2C(F)(F)F)C1)Cc1cc(F)c(F)cc1F [MK-0431, reference compound] |  | 4.8 h
3 | CC(C)(C)OC[C@@H]1C(=O)NCCN1C(=O)C[C@H](N)Cc1cc(F)c(F)cc1F.Cl [Example 1, (R)-4-[(R)-3-amino-4-(2,4,5-trifluorophenyl)butanoyl]-3-(t-butoxymethyl)piperazin-2-one hydrochloride] | 54% | 7.9 h
4 | CCOC[C@@H]1C(=O)NCCN1C(=O)C[C@H](N)Cc1cc(F)c(F)cc1F.Cl [Example 3, (R)-4-[(R)-3-amino-4-(2,4,5-trifluorophenyl)butanoyl]-3-(ethoxymethyl)piperazin-2-one hydrochloride] | 52% | 7.6 h
